Source: ChEMBL document CHEMBL5346955, “Discovery of HPG1860, a Structurally Novel Nonbile Acid FXR Agonist Currently in Clinical Development for the Treatment of Nonalcoholic Steatohepatitis” (J Med Chem, 2023)
Converted amounts (≈) assume the structure as drawn. Each block holds one molecule with its values, some of them ahead of it. The source made the active and inactive calls. The rule behind the calls is not given here.

Key:
[1] = target: T1, Bile acid receptor (Homo sapiens, UniProt Q96RI1); assay: Agonist activity at GST-tagged human FXR-LBD in presence of luorescein-SRC2-2 coactivator peptide by TR-FRET assay
T1 sequence (Q96RI1 whole entry): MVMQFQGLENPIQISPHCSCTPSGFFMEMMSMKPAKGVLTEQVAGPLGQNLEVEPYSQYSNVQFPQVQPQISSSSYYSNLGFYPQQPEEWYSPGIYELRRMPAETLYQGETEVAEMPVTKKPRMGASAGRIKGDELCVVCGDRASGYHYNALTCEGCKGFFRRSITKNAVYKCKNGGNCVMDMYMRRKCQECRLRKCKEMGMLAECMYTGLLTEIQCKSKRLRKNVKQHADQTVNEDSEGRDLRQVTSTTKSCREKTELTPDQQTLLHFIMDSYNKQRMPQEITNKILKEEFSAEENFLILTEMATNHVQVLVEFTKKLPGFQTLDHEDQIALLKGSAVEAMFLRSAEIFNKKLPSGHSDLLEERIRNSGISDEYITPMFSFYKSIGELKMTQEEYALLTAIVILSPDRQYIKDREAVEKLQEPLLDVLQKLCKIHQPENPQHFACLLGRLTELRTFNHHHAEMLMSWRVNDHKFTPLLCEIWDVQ

[2] = target: T1, Bile acid receptor; assay: Agonist activity at human GAL4-FXR-LBD expressed in HEK293T cells assessed as transcriptional activity measured after 16 to 20 hrs by luciferase reporter gene assay; type: cell-based
[3] = Solubility of the compound in PBS buffer at pH 7.4; type: physicochemical
[4] = Metabolic stability in human liver microsomes assessed as half life at 1 uM measured upto 120 mins by UPLC/MS/MS analysis; type: ADME, Microsome
[5] = Metabolic stability in rat liver microsomes assessed as half life at 1 uM measured upto 120 mins by UPLC/MS/MS analysis; type: ADME, Microsome
[6] = Metabolic stability in dog liver microsomes assessed as half life at 1 uM measured upto 120 mins by UPLC/MS/MS analysis; type: ADME, Canis lupus familiaris, Microsome
[7] = Metabolic stability in cynomolgus monkey liver microsomes assessed as half life at 1 uM measured upto 120 mins by UPLC/MS/MS analysis; type: ADME, Macaca fascicularis, Microsome
[8] = AUC (0 to t) in Balb/c mouse at 1 mg/kg, iv measured after 5 mins by LC-MS/MS analysis; type: ADME, organism-based; design: time 5 min, dose 1 mg/kg, route iv; conditions: in vivo
[9] = Half life in Balb/c mouse at 1 mg/kg, iv measured after 5 mins by LC-MS/MS analysis; type: ADME, organism-based; conditions: in vivo
[10] = Clearance in Balb/c mouse at 1 mg/kg, iv measured after 5 mins by LC-MS/MS analysis; type: ADME, organism-based; conditions: in vivo
[11] = Volume of distribution at steady state in Balb/c mouse at 1 mg/kg, iv measured after 5 mins by LC-MS/MS analysis; type: ADME, organism-based; conditions: in vivo, read-out: Vdss
[12] = Cmax in Balb/c mouse at 5 mg/kg, po measured after 12 hrs by LC-MS/MS analysis; type: ADME, organism-based; design: dose 5 mg/kg, time 12 hrs, route po; conditions: in vivo
[13] = Tmax in Balb/c mouse at 5 mg/kg, po measured after 12 hrs by LC-MS/MS analysis; type: ADME, organism-based; conditions: in vivo
[14] = AUC (0 to t) in Balb/c mouse at 5 mg/kg, po measured after 12 hrs by LC-MS/MS analysis; type: ADME, organism-based; design: dose 5 mg/kg, time 12 hrs, route po; conditions: in vivo
[15] = Half life in Balb/c mouse at 5 mg/kg, po measured after 12 hrs by LC-MS/MS analysis; type: ADME, organism-based; conditions: in vivo
[16] = Oral bioavailability in Balb/c mouse at 5 mg/kg measured after 12 hrs by LC-MS/MS analysis; type: ADME, organism-based; conditions: in vivo
[17] = AUC (0 to t) in Sprague-Dawley rat at 3 mg/kg, iv measured after 5 mins by LC-MS/MS analysis; type: ADME, organism-based; design: time 5 min, dose 3 mg/kg, route iv; conditions: in vivo
[18] = Half life in Sprague-Dawley rat at 3 mg/kg, iv measured after 5 mins by LC-MS/MS analysis; type: ADME, organism-based; conditions: in vivo
[19] = Volume of distribution at steady state in Sprague-Dawley rat at 3 mg/kg, iv measured after 5 mins by LC-MS/MS analysis; type: ADME, organism-based; conditions: in vivo
[20] = Cmax in Sprague-Dawley rat at 9 mg/kg, po measured after 12 hrs by LC-MS/MS analysis; type: ADME, organism-based; design: time 12 hrs, dose 9 mg/kg, route po; conditions: in vivo
[21] = Tmax in Sprague-Dawley rat at 9 mg/kg, po measured after 12 hrs by LC-MS/MS analysis; type: ADME, organism-based; conditions: in vivo
[22] = AUC (0 to t) in Sprague-Dawley rat at 9 mg/kg, po measured after 12 hrs by LC-MS/MS analysis; type: ADME, organism-based; design: dose 9 mg/kg, time 12 hrs, route po; conditions: in vivo
[23] = Half life in Sprague-Dawley rat at 9 mg/kg, po measured after 12 hrs by LC-MS/MS analysis; type: ADME, organism-based; conditions: in vivo
[24] = Oral bioavailability in Sprague-Dawley rat at 9 mg/kg measured after 12 hrs by LC-MS/MS analysis; type: ADME, organism-based; conditions: in vivo
[25] = AUC (0 to t) in Beagle dog at 1 mg/kg, iv measured after 5 mins by LC-MS/MS analysis; type: ADME, organism-based, Canis lupus familiaris; design: dose 1 mg/kg, time 5 min, route iv; conditions: in vivo
[26] = Half life in Beagle dog at 1 mg/kg, iv measured after 5 mins by LC-MS/MS analysis; type: ADME, organism-based, Canis lupus familiaris; conditions: in vivo
[27] = Clearance in Beagle dog at 1 mg/kg, iv measured after 5 mins by LC-MS/MS analysis; type: ADME, organism-based, Canis lupus familiaris; conditions: in vivo
[28] = Volume of distribution at steady state in Beagle dog at 1 mg/kg, iv measured after 5 mins by LC-MS/MS analysis; type: ADME, organism-based, Canis lupus familiaris; conditions: in vivo, read-out: Vdss
[29] = Cmax in Beagle dog at 3 mg/kg, po measured after 12 hrs by LC-MS/MS analysis; type: ADME, organism-based, Canis lupus familiaris; design: time 12 hrs, dose 3 mg/kg, route po; conditions: in vivo
[30] = Tmax in Beagle dog at 3 mg/kg, po measured after 12 hrs by LC-MS/MS analysis; type: ADME, organism-based, Canis lupus familiaris; conditions: in vivo
[31] = AUC (0 to t) in Beagle dog at 3 mg/kg, po measured after 12 hrs by LC-MS/MS analysis; type: ADME, organism-based, Canis lupus familiaris; design: dose 3 mg/kg, time 12 hrs, route po; conditions: in vivo
[32] = Half life in Beagle dog at 3 mg/kg, po measured after 12 hrs by LC-MS/MS analysis; type: ADME, organism-based, Canis lupus familiaris; conditions: in vivo
[33] = Drug metabolism in dog assessed as taurine/glycine conjugates in plasma at 50 mg/kg, po; type: ADME, organism-based, Canis lupus familiaris; conditions: in vivo
[34] = Induction of SHP gene expression in C57BL/6J mouse liver assessed as fold increase at 3 mg/kg, po measured after 1 hr by RT-qPCR analysis; type: functional
[35] = Induction of BSEP gene expression in C57BL/6J mouse liver assessed as fold increase at 3 mg/kg, po measured after 12 hr by RT-qPCR analysis; type: functional
[36] = Induction of FGF15 gene expression in C57BL/6J mouse ileum assessed as fold increase at 3 mg/kg, po measured after 4 hr by RT-qPCR analysis relative to control; type: functional
[37] = Induction of FGF15 gene expression in C57BL/6J mouse ileum assessed as fold increase at 3 mg/kg, po measured after 1 hr by RT-qPCR analysis relative to control; type: functional
[38] = Induction of SHP gene expression in C57BL/6J mouse ileum assessed as fold increase at 3 mg/kg, po measured after 4 hr by RT-qPCR analysis relative to control; type: functional
[39] = Toxicity in C57BL/6J mouse assessed as change in body weight at 1 to 10 mg/kg, po qd; type: organism-based; conditions: in vivo, dose 1-10 mg/kg
[40] = test system: Mus musculus; assay: Anti-nonalcoholic steatohepatitis activity against ccl4-induced C57BL/6J mouse model assessed as decrease in ALT level in liver at 1 to 10 mg/kg, po qd treated for 28 days; type: functional, organism-based; conditions: dose 1-10 mg/kg, time 28.0 day
[41] = test system: Mus musculus; assay: Anti-nonalcoholic steatohepatitis activity against ccl4-induced C57BL/6J mouse model assessed as decrease in AST level in liver at 1 to 10 mg/kg, po qd treated for 28 days; type: functional, organism-based; conditions: dose 1-10 mg/kg, time 28.0 day
[42] = test system: Mus musculus; assay: Anti-nonalcoholic steatohepatitis activity against ccl4-induced C57BL/6J mouse model assessed as reduction total cholesterol in serum at 1 to 10 mg/kg, po qd treated for 28 days; type: functional, organism-based; conditions: dose 1-10 mg/kg, time 28.0 day
[43] = test system: Mus musculus; assay: Anti-nonalcoholic steatohepatitis activity against ccl4-induced C57BL/6J mouse model assessed as improvement in NAFLD activity score at 1 to 10 mg/kg, po qd treated for 28 days; type: functional, organism-based; conditions: dose 1-10 mg/kg, time 28.0 day
[44] = test system: Mus musculus; assay: Anti-nonalcoholic steatohepatitis activity against ccl4-induced C57BL/6J mouse model assessed as clearance of liver steatosis at 10 mg/kg, po qd treated for 28 days; type: functional; conditions: time 28 day
[45] = test system: Mus musculus; assay: Anti-nonalcoholic steatohepatitis activity against ccl4-induced C57BL/6J mouse model assessed as improvement in liver inflammation at 1 to 10 mg/kg, po qd treated for 28 days; type: functional, organism-based; conditions: dose 1-10 mg/kg, time 28.0 day
[46] = test system: Mus musculus; assay: Anti-nonalcoholic steatohepatitis activity against ccl4-induced C57BL/6J mouse model assessed as improvement in fibrosis at 1 to 10 mg/kg, po qd treated for 28 days; type: functional, organism-based; conditions: dose 1-10 mg/kg, time 28.0 day

SMILES: CC(C)c1onc(-c2c(Cl)cccc2Cl)c1CN1CCN(c2cc3cc(C(=O)O)ccc3n2C)CC1
EC50 [1]: 67 nM
EC50 [2]: > 5000 nM

SMILES: COc1cc(C(=O)O)cc2sc(C3CCN(Cc4c(-c5c(Cl)cccc5Cl)noc4C(C)C)C3)nc12 (stereo not drawn)
EC50 [1]: 266 nM
EC50 [2]: > 5000 nM

SMILES: CC(C)c1onc(-c2c(Cl)cccc2Cl)c1CN1CCN(c2cc3cc(C(=O)O)ccc3s2)CC1
EC50 [2]: 1190 nM

SMILES: CC(C)c1onc(-c2c(Cl)cccc2Cl)c1CN1CCN(c2nc3ccc(C(=O)O)cc3s2)CC1
EC50 [2]: 256 nM

These reach a lower EC50 [2]. Values come first.

EC50 [1]: 28 nM
EC50 [2]: 194 nM
SMILES: COc1cc(C(=O)O)cc2sc(N3CCC(Cc4c(-c5c(Cl)cccc5Cl)noc4C(C)C)CC3)nc12

EC50 [1]: 37 nM
EC50 [2]: 127 nM
SMILES: COc1cc(C(=O)O)cc2sc(N3CCN(Cc4c(-c5c(Cl)cccc5Cl)noc4C(C)C)CC3(C)C)nc12

EC50 [1]: 8 nM
EC50 [2]: 41 nM
SMILES: COc1cc(C(=O)O)cc2sc(N3CCN(Cc4c(-c5c(Cl)cccc5Cl)noc4C4CC4)CC3C)nc12 (stereo not drawn)

EC50 [1]: 5 nM
EC50 [2]: 18 nM
solubility [3]: 284 µM (≈ 163 µg/mL)
half-life at 1 µM [4]: 7.45 h
half-life at 1 µM [5]: 1.93 h
half-life at 1 µM [6]: 3.95 h
half-life at 1 µM [7]: 2.57 h
AUC(0-t) at 5 min [8]: 1010 ng·h/mL
half-life [9]: 1.6 h
clearance [10]: 16.5 mL/min/kg
Vd [11]: 0.53 L/kg
Cmax [12]: 3610 ng/mL
Tmax [13]: 0.25 h
AUC(0-t) at 12 h [14]: 3880 ng·h/mL
half-life [15]: 1.52 h
bioavailability [16]: 77.2%
AUC(0-t) at 5 min [17]: 2610 ng·h/mL
t1/2 [18]: 1.44 h
Vdss [19]: 29.3 L/kg
Cmax [20]: 1950 ng/mL
Tmax [21]: 0.5 h
AUC(0-t) at 12 h [22]: 4120 ng·h/mL
half-life [23]: 2.1 h
bioavailability [24]: 52.1%
AUC(0-t) at 5 min [25]: 4590 ng·h/mL
half-life [26]: 4.07 h
clearance [27]: 3.63 mL/min/kg
Vd [28]: 0.823 L/kg
Cmax [29]: 1710 ng/mL
Tmax [30]: 1 h
AUC(0-t) at 12 h [31]: 8270 ng·h/mL
half-life [32]: 9.9 h
Drug metabolism [33]: Metabolite_Notdetected
SMILES: COc1cc(C(=O)O)cc2sc(N3CCN(Cc4c(-c5c(Cl)cccc5Cl)noc4C4CC4)C[C@H]3C)nc12
fold change (FC) [34]: 12
fold change (FC) [35]: 4
fold change (FC) [36]: 5
fold change (FC) [37]: 7
fold change (FC) [38]: ~30
Activity [39]: Non-Toxic
Activity [40]: Active
Activity [41]: Active
Activity [42]: Active
Activity [43]: Active
Activity [44]: 100%
Activity [45]: Active
Activity [46]: Active
